“Also recorded” adds a separate entry of the source.
Experiments:
[1] = tested on: cellulase from Trichoderma longibrachiatum; assay: Cellulase assay: release of C1PNP/PNP (absorbance 400 nm) from substrates, with and without β-glucosidase; assay type: biochemical; details: 40° C., pH 4.5; for sensitivity of the assay (rate of release of C1PNP) in the presence vs absence of β-glucosidase: absorbance 400 nm vs. time, FIGS. 3a-3b
Text: FIGS. 3a-3b are graphs of absorbance (400 nm) vs. time, for the action of a cellulase from Trichoderma longibrachiatum on. […] In contrast, for BC1PNP-G3 (3b) the endo-acting Trichoderma cellulase cleaves the glycosidic bond either between two glucosyl units or between the bond between the terminal glucosyl unit and C1PNP releasing an end-blocked cello-oligosaccharide and a non-blocked C1PNP-cello-oligosaccharide fragment, or free C1PNP. The β-glucosidase in the assay mixture immediately hydrolyses the non-blocked C1PNP-cello-oligosaccharide released, giving D-glucose and free C1PNP.
FIG. 4 is a graph of absorbance (400 nm) vs. time, for the action of a cellulase from Trichoderma longibrachiatum (1500 milli-International Units on CMC-4M per assay) on p-nitrophenyl cellobiose (PNP-G2), 2-chloro-4-nitrophenyl cellobiose (C1PNP-G2), end-blocked p-nitrophenyl cellobiose (BPNP-G2) and end-blocked 2-chloro-4-nitrophenyl cellobiose (BC1PNP-G2) in the absence of added β-glucosidase at 40° C. and pH 4.5 using an assay of the invention (embodiment Two).
(§1) Prepare substrate solution by dissolving end-blocked p-nitrophenyl cello-oligosaccharides or end-blocked 2-Cl-4-nitrophenyl cello-oligosaccharide (DP 2, 3 or 4) in 2 mL of dimethyl sulphoxide to obtain a concentration of 12.5 mM. Cool this solution in ice and add 3 mL of 170 mM potassium chloride solution with mixing, to give a final substrate concentration of 5 mM. Prepare this solution fresh before use, or warm to 40° C. before use to ensure complete dissolution.
Add an aliquot (0.1 mL) of the substrate solution to the bottom of a 16×120 mm glass test tube, followed by 0.05 mL of pure β-glucosidase (Second embodiment only). Incubate tubes for 2 min at the selected reaction temperature and initiate the reaction by adding 0.1 mL of sample solution containing cellulase in 200 mM buffer solution of the desired pH (usually in the range of 4.5 to 8.0). […] Mix the tube contents and measure the absorbance at 400 nm against a reaction blank.

[2] = tested on: cellulase from Aspergillus niger; assay: Cellulase assay: release of C1PNP (absorbance 400 nm) from end-blocked substrates, with and without β-glucosidase; assay type: biochemical; details: 40° C., pH 4.5; absorbance 400 nm vs. time; FIGS. 2a-2b
Protocol: FIGS. 2a-2b are graphs of absorbance (400 nm) vs. time, for the action of a cellulase from Aspergillus niger on. […] FIG. 2b shows_end-blocked 2-chloro-4-nitrophenyl cellotriose (BC1PNP-G3) (700 milli-International Units per assay) at 40° C. and pH 4.5 in the presence and the absence of β-glucosidase using an assay of the invention. […] Note: One International Unit of enzyme activity as defined is the amount of enzyme required to release one micromole of reducing sugar equivalents per minute from carboxymethyl cellulose 4M (CMC-4M) (10 mg/mL) in 100 mM sodium acetate buffer (pH 4.5).
as §1
Add an aliquot (0.1 mL) of the substrate solution to the bottom of a 16×120 mm glass test tube, followed by 0.05 mL of pure β-glucosidase (Second embodiment only). […] Mix the tube contents and measure the absorbance at 400 nm against a reaction blank.

Substance	sensitivity of the assay (rate of release of C1PNP) in the presence vs absence of β-glucosidase [1]	sensitivity of the assay (rate of release of C1PNP) in the presence vs absence of β-glucosidase [2]	rate of hydrolysis by Trichoderma cellulase (comparison of substrates) ([1]; absence of added β-glucosidase, 1500 milli-International Units per assay, FIG. 4)
end-blocked 2-chloro-4-nitrophenyl cellobiose [BC1PNP-G2]	same sensitivity of the assay; also recorded: the same result is seen	same sensitivity of the assay; also recorded: no increase in the colour formed	–
end-blocked 2-chloro-4-nitrophenyl cellotriose [BC1PNP-G3]	greater sensitivity of the assay in the presence of added β-glucosidase	same sensitivity of the assay; also recorded: no increase in the colour formed	–
end-blocked p-nitrophenyl cellobiose [BPNP-G2]	–	–	slower rate than BC1PNP-G2
